{"source": "paper PMC11252418", "about": "“Specific glycine-dependent enzyme motion determines the potency of conformation selective inhibitors of threonyl-tRNA synthetase” (Communications Biology, 2024)", "key": {"EcThrRS_A316N": {"target": "T1, EcThrRS_A316N (Escherichia coli, UniProt P0A8M3, A316N)", "T1 construct": "The E. coli ThrRS (residues 242-642, Supplementary Note 1) wild type; 6xHis (C); made in house; host or cells: E. coli BL21 (DE3)", "T1 sequence (P0A8M3 242-642 A316N)": "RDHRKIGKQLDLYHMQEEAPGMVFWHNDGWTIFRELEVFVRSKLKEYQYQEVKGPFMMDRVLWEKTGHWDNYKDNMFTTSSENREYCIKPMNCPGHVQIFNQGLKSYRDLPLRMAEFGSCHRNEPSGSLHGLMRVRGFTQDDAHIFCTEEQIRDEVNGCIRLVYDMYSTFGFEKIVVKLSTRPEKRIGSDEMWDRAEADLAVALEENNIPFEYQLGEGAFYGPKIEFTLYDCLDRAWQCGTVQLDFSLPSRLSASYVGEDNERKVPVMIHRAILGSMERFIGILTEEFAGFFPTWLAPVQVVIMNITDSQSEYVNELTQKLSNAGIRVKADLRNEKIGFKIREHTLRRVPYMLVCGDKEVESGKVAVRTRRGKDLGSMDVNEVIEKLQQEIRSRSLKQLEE", "assay": "Thermal shift assay (TSA)", "type": "binding", "protocol": "(§1) The EcThrRS_WT and L489M/G463S/G463S_Q484A/G463A/A316N mutant proteins, ObaO_WT and ObaO_S464G mutant proteins were prepared at 2 μM in buffer containing 25 mM Tris-HCl pH 7.5, 200 mM NaCl, and 20 μM OB (GlpBio, US) or BN (GlpBio, US) or ddH2O in equal volumes since the compounds were diluted with ddH2O to 1 mM as stocks. […] SYPRO orange dye (Sigma, USA) was diluted in assay buffer containing 25 mM Tris-HCl pH 7.5 and 200 mM NaCl to a 40× concentration, and was added to the mixture to a final 4× concentration. Aliquots (20 μL) were added to a 96-well PCR plate. After complete mixing, the final solutions were heated from 25 to 95 °C at a rate of 0.015 °C/s, and fluorescence signals were monitored by QuantStudio 3 (Applied Biosystems by Thermo Fisher Scientific, USA). The melting temperature (Tm) was calculated through a previously established method[56],[57]."}, "EcThrRS_G463A": {"target": "T2, EcThrRS_G463A (Escherichia coli, UniProt P0A8M3, G463A)", "T2 construct": "The E. coli ThrRS (residues 242-642, Supplementary Note 1) wild type; 6xHis (C); made in house; host or cells: E. coli BL21 (DE3)", "T2 sequence (P0A8M3 242-642 G463A)": "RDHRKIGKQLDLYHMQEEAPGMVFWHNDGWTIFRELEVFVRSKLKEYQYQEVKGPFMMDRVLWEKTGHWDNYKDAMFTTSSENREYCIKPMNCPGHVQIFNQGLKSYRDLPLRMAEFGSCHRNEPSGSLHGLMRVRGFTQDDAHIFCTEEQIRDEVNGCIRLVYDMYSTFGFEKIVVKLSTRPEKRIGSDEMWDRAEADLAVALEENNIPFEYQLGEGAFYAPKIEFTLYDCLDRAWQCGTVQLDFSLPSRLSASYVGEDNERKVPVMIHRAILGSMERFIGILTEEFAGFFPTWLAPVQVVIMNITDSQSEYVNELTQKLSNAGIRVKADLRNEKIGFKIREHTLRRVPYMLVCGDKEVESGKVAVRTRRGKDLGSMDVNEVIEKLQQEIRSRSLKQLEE", "assay": "Thermal shift assay (TSA)", "type": "binding", "protocol": "as §1"}, "EcThrRS_G463S": {"target": "T3, EcThrRS_G463S (Escherichia coli, UniProt P0A8M3, G463S)", "T3 construct": "The E. coli ThrRS (residues 242-642, Supplementary Note 1) wild type; 6xHis (C); made in house; host or cells: E. coli BL21 (DE3)", "T3 sequence (P0A8M3 242-642 G463S)": "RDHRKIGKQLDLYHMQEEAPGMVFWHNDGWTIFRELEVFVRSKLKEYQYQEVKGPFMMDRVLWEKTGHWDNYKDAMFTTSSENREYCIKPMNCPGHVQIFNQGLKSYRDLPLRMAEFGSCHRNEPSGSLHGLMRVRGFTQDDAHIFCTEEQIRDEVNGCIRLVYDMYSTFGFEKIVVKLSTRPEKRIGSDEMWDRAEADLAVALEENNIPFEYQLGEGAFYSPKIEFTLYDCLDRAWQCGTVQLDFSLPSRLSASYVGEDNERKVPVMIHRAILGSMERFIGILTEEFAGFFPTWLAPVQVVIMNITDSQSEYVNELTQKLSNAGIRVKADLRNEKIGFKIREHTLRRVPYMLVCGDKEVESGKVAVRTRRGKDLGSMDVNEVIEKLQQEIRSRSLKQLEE", "assay": "Thermal shift assay (TSA)", "type": "binding", "protocol": "as §1"}, "EcThrRS_G463S_Q484A": {"target": "T4, EcThrRS_G463S_Q484A (Escherichia coli, UniProt P0A8M3, G463S/Q484A)", "T4 construct": "The E. coli ThrRS (residues 242-642, Supplementary Note 1) wild type; 6xHis (C); made in house; host or cells: E. coli BL21 (DE3)", "T4 sequence (P0A8M3 242-642 G463S/Q484A)": "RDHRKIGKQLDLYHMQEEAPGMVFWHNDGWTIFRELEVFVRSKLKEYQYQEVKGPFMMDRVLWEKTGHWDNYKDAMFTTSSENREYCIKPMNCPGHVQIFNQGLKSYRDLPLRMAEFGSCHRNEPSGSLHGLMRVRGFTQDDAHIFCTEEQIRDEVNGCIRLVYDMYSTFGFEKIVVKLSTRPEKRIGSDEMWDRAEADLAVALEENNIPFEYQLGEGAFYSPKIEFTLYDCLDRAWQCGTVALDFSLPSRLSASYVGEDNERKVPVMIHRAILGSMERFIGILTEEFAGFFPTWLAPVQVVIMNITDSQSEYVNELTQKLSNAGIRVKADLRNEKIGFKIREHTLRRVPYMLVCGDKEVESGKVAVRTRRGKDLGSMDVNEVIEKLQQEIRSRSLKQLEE", "assay": "Thermal shift assay (TSA)", "type": "binding", "protocol": "as §1"}, "EcThrRS_L489M": {"target": "T5, EcThrRS_L489M (Escherichia coli, UniProt P0A8M3, L489M)", "T5 construct": "The E. coli ThrRS (residues 242-642, Supplementary Note 1) wild type; 6xHis (C); made in house; host or cells: E. coli BL21 (DE3)", "T5 sequence (P0A8M3 242-642 L489M)": "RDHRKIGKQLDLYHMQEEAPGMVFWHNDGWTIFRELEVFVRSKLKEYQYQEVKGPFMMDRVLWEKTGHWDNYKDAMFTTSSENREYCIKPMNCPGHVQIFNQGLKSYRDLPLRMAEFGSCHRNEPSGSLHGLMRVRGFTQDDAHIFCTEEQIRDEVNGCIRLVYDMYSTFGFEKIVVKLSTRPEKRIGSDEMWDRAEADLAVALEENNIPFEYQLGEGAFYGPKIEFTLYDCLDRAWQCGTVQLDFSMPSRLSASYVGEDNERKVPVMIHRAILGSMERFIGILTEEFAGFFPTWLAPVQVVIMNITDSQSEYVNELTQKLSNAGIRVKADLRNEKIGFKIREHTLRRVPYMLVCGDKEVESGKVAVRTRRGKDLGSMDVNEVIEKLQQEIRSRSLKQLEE", "assay": "Thermal shift assay (TSA)", "type": "binding", "protocol": "as §1"}, "ObaO_S464G": {"test_system": "ObaO_S464G", "assay": "Thermal shift assay (TSA)", "type": "binding, Pseudomonas fluorescens", "protocol": "as §1"}, "ObaO_WT": {"test_system": "ObaO_WT", "assay": "Thermal shift assay (TSA)", "type": "binding, Pseudomonas fluorescens", "protocol": "as §1"}, "[1]": {"test_system": "in vitro translation system of Kluyveromyces marxianus", "type": "biochemical", "details": "K. marxianus extract, rebuttal letter", "source_text": "lactone produced by Pseudomonas fluorescens. Taxonomy, fermentation and biological properties. The Journal of antibiotics 37, 802-803 (1984).\n28 Kumar, P. et al. l-Threonine Transaldolase Activity Is Enabled by a Persistent Catalytic Intermediate. ACS chemical biology 16, 86-95 (2021).\n29 Schaffer, J. E., Reck, M. R., Prasad, N. K. & Wencewicz, T. A. beta-Lactone formation during product release from a nonribosomal peptide synthetase. Nat Chem Biol 13, […]\n30 Scott, T. A., Heine, D., Qin, Z. & Wilkinson, B. An L-threonine transaldolase is required for L-threo-beta-hydroxy-alpha-amino acid assembly during obafluorin biosynthesis. Nature communications 8, 15935 (2017).\n31 Kreitler, D. F., Gemmell, E. M., Schaffer, J. E., Wencewicz, T. A. & Gulick, A. M. The structural basis of N-acyl-alpha-amino-beta-lactone formation catalyzed by a nonribosomal peptide synthetase. Nature communications 10, 3432 (2019).\n32 Jones, M. A. et al. Discovery of L-threonine transaldolases for enhanced biosynthesis of beta-hydroxylated amino acids. Communications biology 6, 929 (2023).\n33 Batey, S. F. D. et al. The catechol moiety of obafluorin is essential for antibacterial\n34 Qiao, H. et al. Tyrosine-targeted covalent inhibition of a tRNA synthetase aided by zinc ion. Communications biology 6, 107 (2023).\nWhether OB has inhibitory activity against eukaryotic ThrRS is also a great question. […]"}, "[2]": {"details": "2 μM protein, 20 μM compound, mean n = 4, read-out: ΔTm (increase of Tm)"}, "[3]": {"details": "2 μM protein, 20 μM compound, mean n = 4"}}, "note": "Several values for one entry are separate records, joined by “and”; a condition that tells them apart may be missing. Identical values can stand only once. Like-named read-outs stand apart in the source and are kept apart here.", "data": [{"smiles": "O=C(N[C@@H]1C(=O)O[C@@H]1Cc1ccc([N+](=O)[O-])cc1)c1cccc(O)c1O", "note": "[OB, Obafluorin]", "values": [{"measurement": "ΔTm at 20 µM", "setting": "EcThrRS_A316N; [2]", "result": 33.4, "unit": "°C"}, {"measurement": "ΔTm at 20 µM", "setting": "EcThrRS_A316N; source data sheet Fig.S4a, ThrRS_A316N, read-out: ΔTm, single replicates", "result": 33.4, "unit": "°C"}, {"measurement": "ΔTm at 20 µM", "setting": "EcThrRS_G463A; [2]", "result": 19.5, "unit": "°C"}, {"measurement": "ΔTm less than that of EcThrRS_WT", "setting": "EcThrRS_G463A; EcThrRS_G463A vs WT, same compound", "result": 14.0, "unit": "°C"}, {"measurement": "ΔTm less than that increased by 36j", "setting": "EcThrRS_G463A; difference OB vs 36j on EcThrRS_G463A", "result": 1.3, "unit": "°C"}, {"measurement": "ΔTm at 20 µM", "setting": "EcThrRS_G463A; source data sheet Fig.5a, ThrRS_G463A, read-out: ΔTm, single replicates", "result": 20.4, "unit": "°C"}, {"measurement": "ΔTm at 20 µM", "setting": "EcThrRS_G463S; [2]", "result": 13.3, "unit": "°C"}, {"measurement": "ΔTm at 20 µM", "setting": "EcThrRS_G463S; source data sheet Fig.2a, ThrRS_G463S, read-out: ΔTm, single replicates", "result": 16.1, "unit": "°C"}, {"measurement": "ΔTm at 20 µM", "setting": "EcThrRS_G463S_Q484A; [2]", "result": 17.2, "unit": "°C"}, {"measurement": "ΔTm less than the effect of 36j", "setting": "EcThrRS_G463S_Q484A; difference OB vs 36j on EcThrRS_G463S_Q484A", "result": 10, "unit": "°C"}, {"measurement": "ΔTm at 20 µM", "setting": "EcThrRS_G463S_Q484A; source data sheet Fig.3c, ThrRS_G463S_Q484A, read-out: ΔTm, single replicates", "result": 17.5, "unit": "°C"}, {"measurement": "ΔTm at 20 µM", "setting": "EcThrRS_L489M; [2]", "result": 22.6, "unit": "°C"}, {"measurement": "ΔTm at 20 µM", "setting": "EcThrRS_L489M; source data sheet Fig.2a, ThrRS_L489M, read-out: ΔTm, single replicates", "result": 23, "unit": "°C"}, {"measurement": "ΔTm (increase of Tm)", "setting": "ObaO_S464G; [3]", "result": 14.1, "unit": "°C"}, {"measurement": "ΔTm, single replicates", "setting": "ObaO_S464G; source data sheet Fig.S11a, ObaO_S464G, in °C (unit assumed)", "result": "14.753 and 14.195 and 14.134 and 13.328"}, {"measurement": "ΔTm (increase of Tm)", "setting": "ObaO_WT; [3]", "result": 3.2, "unit": "°C"}, {"measurement": "ΔTm, single replicates", "setting": "ObaO_WT; source data sheet Fig.S11a, ObaO_WT, in °C (unit assumed)", "result": "3.257 and 4.712 and 2.142 and 2.576"}, {"measurement": "IC50", "setting": "[1]", "result": "~9", "unit": "µM"}]}]}
